# Assay results from the supplement of paper PMC10307832.
# How the values were obtained:
# Assay in all cases: relative viability (nuclei count vs DMSO), 5 days (fraction); higher = more cells survive
# [1] = tested on: NCI-H1734
# Summary of the method: (§1)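 A single step with final 0.05% Triton X-100, 1% formaldehyde and 1 ug/ml Hoechst fixed the cells and stained nuclei 5 days after treatment. Lung cancer cell lines in 1536-well plates had been treated by pin tool the day after seeding with one drug alone or a fixed anchor-drug dose plus five library-drug doses (not always all listed) in √10 steps, and nuclei were counted on 4× images. Relative viability is the ratio of nuclei in treated wells to nuclei in vehicle wells, taken as the median of duplicate plates.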
# [2] = tested on: BEN
# Summary of the method: as §1
# [3] = tested on: LK-2
# Summary of the method: as §1
# [4] = tested on: COR-L 105
# Summary of the method: as §1
# [5] = tested on: NCI-H358
# Summary of the method: as §1
# [6] = tested on: NCI-H727
# Summary of the method: as §1
# [7] = tested on: NCI-H1792
# Summary of the method: as §1
# [8] = tested on: SK-MES-1
# Summary of the method: as §1
# [9] = tested on: LOU-NH91
# Summary of the method: as §1
# [10] = tested on: NCI-H2126
# Summary of the method: as §1
# [11] = tested on: EMC-BAC-2
# Summary of the method: as §1
# [12] = tested on: NCI-H2087
# Summary of the method: as §1
# [13] = tested on: EKVX
# Summary of the method: as §1
# [14] = tested on: HCC-78
# Summary of the method: as §1
# [15] = tested on: EPLC-272H
# Summary of the method: as §1
# [16] = tested on: LCLC-97TM1
# Summary of the method: as §1
# [17] = tested on: RERF-LC-KJ
# Summary of the method: as §1
# [18] = tested on: LU99A
# Summary of the method: as §1
# [19] = tested on: NCI-H1944
# Summary of the method: as §1
# [20] = tested on: SW 1573
# Summary of the method: as §1
# [21] = tested on: HCC-827
# Summary of the method: as §1
# [22] = tested on: NCI-H1650
# Summary of the method: as §1
# [23] = tested on: ChaGo-K-1
# Summary of the method: as §1
smiles,measurement,setting,value
O=c1[nH]c2ccccc2n1C1CCN(CCCC(c2ccc(F)cc2)c2ccc(F)cc2)CC1 [Pimozide] + COc1cccc2cc(-c3nc([C@H]4CC[C@H](C(=O)O)CC4)n4ncnc(N)c34)[nH]c12 [OSI-027] (partner 0.5 µM),relative viability,[1]; first compound 0.08 µM,0.604
same,relative viability,[1]; first compound 0.253 µM,0.625
same,relative viability,[1]; first compound 2.53 µM,0.581
same,relative viability,[1]; first compound 8 µM,0.549
same,relative viability,[2]; first compound 0.08 µM,0.275
same,relative viability,[2]; first compound 0.253 µM,0.293
same,relative viability,[2]; first compound 0.8 µM,0.307
same,relative viability,[2]; first compound 2.53 µM,0.321
same,relative viability,[2]; first compound 8 µM,0.304
same,relative viability,[3]; first compound 0.08 µM,0.183
same,relative viability,[3]; first compound 0.253 µM,0.249
same,relative viability,[3]; first compound 0.8 µM,0.179
same,relative viability,[3]; first compound 2.53 µM,0.198
same,relative viability,[3]; first compound 8 µM,0.167
same,relative viability,[4]; first compound 0.253 µM,0.778
same,relative viability,[4]; first compound 0.8 µM,0.617
same,relative viability,[4]; first compound 2.53 µM,0.64
same,relative viability,[4]; first compound 8 µM,0.58
same,relative viability,[5]; first compound 0.08 µM,0.829
same,relative viability,[5]; first compound 0.253 µM,0.74
same,relative viability,[5]; first compound 0.8 µM,0.697
same,relative viability,[5]; first compound 2.53 µM,0.646
same,relative viability,[5]; first compound 8 µM,0.678
same,relative viability,[6]; first compound 0.08 µM,0.717
same,relative viability,[6]; first compound 0.253 µM,0.55
same,relative viability,[6]; first compound 0.8 µM,0.512
same,relative viability,[6]; first compound 2.53 µM,0.652
same,relative viability,[6]; first compound 8 µM,0.54
same,relative viability,[7]; first compound 0.08 µM,0.758
same,relative viability,[7]; first compound 0.253 µM,0.691
same,relative viability,[7]; first compound 0.8 µM,0.666
same,relative viability,[7]; first compound 2.53 µM,0.663
same,relative viability,[7]; first compound 8 µM,0.736
same,relative viability,[8]; first compound 0.08 µM,0.61
same,relative viability,[8]; first compound 0.253 µM,0.572
same,relative viability,[8]; first compound 0.8 µM,0.546
same,relative viability,[8]; first compound 2.53 µM,0.586
same,relative viability,[8]; first compound 8 µM,0.463
same,relative viability,[9]; first compound 0.08 µM,0.442
same,relative viability,[9]; first compound 0.253 µM,0.699
same,relative viability,[9]; first compound 0.8 µM,0.638
same,relative viability,[9]; first compound 2.53 µM,0.729
same,relative viability,[9]; first compound 8 µM,0.708
same,relative viability,[10]; first compound 0.08 µM,0.711
same,relative viability,[10]; first compound 0.253 µM,0.63
same,relative viability,[10]; first compound 0.8 µM,0.755
same,relative viability,[10]; first compound 2.53 µM,0.712
same,relative viability,[10]; first compound 8 µM,0.744
same,relative viability,[11]; first compound 0.08 µM,0.353
same,relative viability,[11]; first compound 0.253 µM,0.337
same,relative viability,[11]; first compound 0.8 µM,0.342
same,relative viability,[11]; first compound 2.53 µM,0.338
same,relative viability,[11]; first compound 8 µM,0.391
same,relative viability,[12]; first compound 0.08 µM,0.765
same,relative viability,[12]; first compound 0.253 µM,0.55
same,relative viability,[12]; first compound 2.53 µM,0.427
same,relative viability,[12]; first compound 8 µM,0.377
same,relative viability,[13]; first compound 0.08 µM,0.548
same,relative viability,[13]; first compound 0.253 µM,0.733
same,relative viability,[13]; first compound 0.8 µM,0.668
same,relative viability,[13]; first compound 2.53 µM,0.637
same,relative viability,[13]; first compound 8 µM,0.647
same,relative viability,[14]; first compound 0.08 µM,0.439
same,relative viability,[14]; first compound 0.8 µM,0.345
same,relative viability,[14]; first compound 2.53 µM,0.36
same,relative viability,[14]; first compound 8 µM,0.354
same,relative viability,[15]; first compound 0.08 µM,0.276
same,relative viability,[15]; first compound 0.253 µM,0.302
same,relative viability,[15]; first compound 0.8 µM,0.25
same,relative viability,[15]; first compound 2.53 µM,0.176
same,relative viability,[15]; first compound 8 µM,0.234
same,relative viability,[16]; first compound 0.08 µM,0.488
same,relative viability,[16]; first compound 0.253 µM,0.363
same,relative viability,[16]; first compound 0.8 µM,0.447
same,relative viability,[16]; first compound 2.53 µM,0.422
same,relative viability,[16]; first compound 8 µM,0.278
same,relative viability,[17]; first compound 0.08 µM,0.509
same,relative viability,[17]; first compound 0.253 µM,0.513
same,relative viability,[17]; first compound 0.8 µM,0.52
same,relative viability,[17]; first compound 2.53 µM,0.427
same,relative viability,[17]; first compound 8 µM,0.448
same,relative viability,[18]; first compound 0.08 µM,0.277
same,relative viability,[18]; first compound 0.253 µM,0.277
same,relative viability,[18]; first compound 0.8 µM,0.228
same,relative viability,[18]; first compound 2.53 µM,0.302
same,relative viability,[18]; first compound 8 µM,0.291
same,relative viability,[19]; first compound 0.08 µM,0.347
same,relative viability,[19]; first compound 0.253 µM,0.417
same,relative viability,[19]; first compound 0.8 µM,0.33
same,relative viability,[19]; first compound 2.53 µM,0.389
same,relative viability,[19]; first compound 8 µM,0.37
same,relative viability,[20]; first compound 0.08 µM,0.611
same,relative viability,[20]; first compound 0.253 µM,0.668
same,relative viability,[20]; first compound 0.8 µM,0.602
same,relative viability,[20]; first compound 2.53 µM,0.525
same,relative viability,[20]; first compound 8 µM,0.307
same,relative viability,[21]; first compound 0.253 µM,0.801
same,relative viability,[21]; first compound 0.8 µM,0.738
same,relative viability,[21]; first compound 2.53 µM,0.782
same,relative viability,[21]; first compound 8 µM,0.769
same,relative viability,[22]; first compound 0.08 µM,0.459
same,relative viability,[22]; first compound 0.253 µM,0.668
same,relative viability,[22]; first compound 0.8 µM,0.491
same,relative viability,[22]; first compound 2.53 µM,0.643
same,relative viability,[22]; first compound 8 µM,0.437
same,relative viability,[23]; first compound 0.08 µM,0.594
same,relative viability,[23]; first compound 0.253 µM,0.555
same,relative viability,[23]; first compound 0.8 µM,0.517
same,relative viability,[23]; first compound 2.53 µM,0.531
same,relative viability,[23]; first compound 8 µM,0.485
